What was measured:
[1] = Stability data of Afatinib dimaleate crystalline Form H3 on storage (PXRD, impurity, water content); assay type: physicochemical; set-up: Impurity: unit not given here
[2] = as above; assay type: physicochemical
Method: X-ray powder diffraction spectrum was measured on a bruker axs D8 advance X-ray powder diffractometer having a copper-a radiation. Adequate sample was gently flattered on a sample holder and scanned from 2 to 50 degrees two-theta, at 0.02 increment and scan speed of 0.2 Sec/Step. The sample was simply placed on the sample holder. The sample was rotated at 30 rpm at a voltage 40 KV and current 35 mA.

[3] = 25 ± 2° C./RH 60 ± 5%, 1st Month
[4] = 25 ± 2° C./RH 60 ± 5%, 2nd Month
[5] = 25 ± 2° C./RH 60 ± 5%, 3rd Month

CN(C)C/C=C/C(=O)Nc1cc2c(Nc3ccc(F)c(Cl)c3)ncnc2cc1O[C@H]1CCOC1 [Afatinib dimaleate crystalline Form H3, 2-Butenamide, N-[4-[(3-Chloro-4-fluorophenyl)amino]-7-[[(3S)-tetrahydro-3-furanyl]oxy]-6-quinazolinyl]-4(dimethylamino),(2E)-]
Impurity ([1]; 5 ± 3° C., 1st Month): 0.22
Water Content ([1]; 5 ± 3° C., 1st Month): 1.34%
Impurity ([1]; 5 ± 3° C., 2nd Month): 0.26
PXRD ([1]; 5 ± 3° C., 2nd Month): Form H3
Water Content ([1]; 5 ± 3° C., 2nd Month): 1.4%
Impurity ([1]; 5 ± 3° C., 3rd Month): 0.27
Water Content ([1]; 5 ± 3° C., 3rd Month): 1.26%
Impurity ([1]; 5 ± 3° C., Initial): 0.22
Water Content ([1]; 5 ± 3° C., Initial): 1%
Impurity [1, 3]: 0.22
PXRD [1, 3]: Form H3
Water Content [1, 3]: 1.18%
Impurity [1, 4]: 0.38
Water Content [1, 4]: 1.35%
Impurity [1, 5]: 0.43
PXRD [1, 5]: Form H3
Water Content [1, 5]: 1.56%
Impurity ([1]; 25 ± 2° C./RH 60 ± 5%, Initial): 0.22
PXRD ([1]; 25 ± 2° C./RH 60 ± 5%, Initial): Form H3
Water Content ([1]; 25 ± 2° C./RH 60 ± 5%, Initial): 1%
stability ([1]; at 5±3° C. and 25±2° C./RH (Relative humidity) 60±5%): stable
PXRD ([2]; 5 ± 3° C., 1st Month): Form H3
PXRD ([2]; 5 ± 3° C., 3rd Month): Form H3
PXRD ([2]; 5 ± 3° C., Initial): Form H3
PXRD [2, 4]: Form H3
